≈ marks a conversion by molar mass, not a printed value.
Tests used:
Format in all cases: functional
[1] = tested on: Mycobacterium tuberculosis; test: Antimycobacterial activity against INH-resistant Mycobacterium tuberculosis after 2 to 3 weeks by turbidity assay
[2] = tested on: Mycobacterium tuberculosis; test: Antimycobacterial activity against streptomycin-resistant Mycobacterium tuberculosis after 2 to 3 weeks by turbidity assay
[3] = tested on: Mycobacterium tuberculosis; test: Antimycobacterial activity against rifampicin-resistant Mycobacterium tuberculosis after 2 to 3 weeks by turbidity assay

SMILES | MIC [1] [µg/mL] | MIC [2] [µg/mL] | MIC [3] [µg/mL]
O=C(NCc1ccccn1)c1sc2c([N+](=O)[O-])cc(C(F)(F)F)cc2[n+]1[O-] | 0.06 (≈ 0.151 µM) | 0.06 (≈ 0.151 µM) | 0.03 (≈ 0.0753 µM)
O=C(NCc1ccccn1)c1nc2cc(C(F)(F)F)cc([N+](=O)[O-])c2s1 | 0.12 (≈ 0.314 µM) | 0.25 (≈ 0.654 µM) | 0.25 (≈ 0.654 µM)
Cc1c(C(F)(F)F)cc2nc(C(=O)N3CCCCC3)sc2c1[N+](=O)[O-] | 0.25 (≈ 0.67 µM) | 0.25 (≈ 0.67 µM) | 0.5 (≈ 1.34 µM)
COCCN1CCN(C(=O)c2nc3cc(C(F)(F)F)c(C)c([N+](=O)[O-])c3s2)CC1 | 1 (≈ 2.31 µM) | 1 (≈ 2.31 µM) | 1 (≈ 2.31 µM)

From ChEMBL document CHEMBL3739380, “Discovery of benzothiazoles as antimycobacterial agents: Synthesis, structure-activity relationships and binding studies with Mycobacterium tuberculosis decaprenylphosphoryl-β-D-ribose 2'-oxidase” (Bioorg Med Chem, 2015)
